Source: paper PMC4596473 (PLoS ONE, 2015)
Entries after “also recorded” stand apart in the source; their conditions may differ. Where two headings read alike, the source gives them in different places.

How the values were obtained:
[1] = system: healthy Japanese subjects; assay: Safety assessment (adverse events, vital signs, ECG, laboratory tests); format: in vivo, human; conditions: for Tolerability: single dose of luseogliflozin 5 mg and 20 mg
Description: Safety assessments included recording of adverse events, vital signs (body temperature, blood pressure, and pulse rate), physical examinations, ECGs, and clinical laboratory tests.

[2] = system: healthy Japanese subjects; assay: Thorough QT/QTc study: 12-lead ECG assessment of QTcF/QTcB; format: in vivo, human; conditions: for Least squares mean ΔΔQTcF: moxifloxacin 400 mg single dose; for Upper bound of the 90% two-sided CI of the least squares mean ΔΔQTcB: all time points, data not shown; for Upper bound of the 90% two-sided CI for the least squares mean ΔΔQTcF: single dose, all time points 0.5-24 h post-dose
Description: The study was conducted at Kitasato Institute Hospital (Tokyo, Japan) from July 6th 2011 to September 15th 2011. […] All treatments were administered with 200 mL of water after at least 10-hour overnight fast, and no food was allowed until 4 hours after dosing. All treatments were administered in a randomized sequence. The random assignment manager randomly assigned treatment groups using the Williams Design to determine the order of treatments within each treatment sequence by the time of study drug administration to the first admission group. A randomization code was created for each treatment sequence sealed and securely retained until unblinding and were provided to the sponsor after unblinding.
Serial triplicate digital 12-lead electrocardiograms (ECGs) were recorded over 5 min in the supine position after resting for 10 min for each time point (pre-dose [50–70 min before dosing], 0.5, 1, 2, 3, 4, 6, 8, and 24 h post-dose) using an electrocardiograph (ELI250, Mortara). The same model of 12-lead digital surface ECG monitor was employed for all subjects at all time points. The same lead was used throughout the study. The interval between the start of each recording was ≥1 min, and ECG was recorded for 10 s for each chart. All 12-lead ECG charts for QT/QTc analysis were sent electronically to the central ECG analysis facility. RR and QT intervals were measured in accordance with the procedures of the facility. The time of recording and subject identification information were blinded before measurement. QTc intervals were corrected by Fridericia’s (QTcF = QT/RR^1/3) and Bazett’s (QTcB = QT/RR^1/2) formulae. QTcF was the primary endpoint, and QTcB was the secondary endpoint.
Treatment comparisons between luseogliflozin therapeutic dose or supratherapeutic dose and placebo (ΔΔQTc) were analyzed using a linear mixed model with treatment, sequence, period, scheduled time, and the interaction of treatment with scheduled time as fixed effects, subject as a random effect, and baseline QTc as a covariate. The effect of luseogliflozin on QT/QTc interval prolongation was regarded as negative when the upper bound of the 90% two-sided confidence interval (CI) for the mean effect on the QT/QTc interval […] 10 ms at all time points in the luseogliflozin groups.
A categorical analysis was also performed. New onset of QTc greater than 450, 480, or 500 ms after dosing or change from baseline in QTc greater than 30 or 60 ms was categorized in each treatment group.

[3] = clinical; conditions: human, in vivo, po
Description: (§1) The plasma concentrations of luseogliflozin and its metabolites were determined by two separate methods at JCL Bioassay Corp. (Hyogo, Japan). Luseogliflozin, its metabolites and its deuterium-labeled internal standard (luseogliflozin-d5, M2-d5 and M17-d5, Taisho Pharmaceutical Co. Ltd., Japan) were extracted from plasma by solid phase extraction. Extracts were analysed by LC-MS/MS. The lower limit of quantification (LLOQ) for luseogliflozin and its metabolites (M2 and M17) in plasma were 0.05 and 0.1 ng/mL, respectively. […] Extracts were analysed by LC-MS/MS. […] Summary statistics were provided for the pharmacokinetic parameters by treatment group.

[4] = human, in vivo, po
Description: as §1

[5] = cited from earlier work
[6] = system: dogs; conditions: 52-week repeated dose; cited from earlier work
[7] = system: papillary muscle of anesthetized guinea pigs; conditions: non-clinical study; cited from earlier work
[8] = system: SGLT2; conditions: read-out: 50% inhibitory concentration (IC50); SGLT2, human expressing cells, nonclinical study; cited from earlier work
[9] = system: human ether-a-go-go-related gene (hERG) current; assay: hERG current in hERG-transfected HEK293 cells in vitro; format: cell-based; conditions: versus Cmax of a 5 mg dose in diabetic subjects in a clinical study
Description: In non-clinical studies, effects of luseogliflozin on the cardiovascular system were investigated via the human ether-a-go-go-related gene (hERG) current in hERG-transfected human embryonic kidney cells (HEK293 cells) in vitro; action potential in the papillary muscle of anesthetized guinea pigs; and blood pressure, heart rate, and electrocardiogram (ECG) in conscious beagle dogs.

[10] = system: human ether-a-go-go-related gene (hERG) current; conditions: at 9.6 μmol/L; non-clinical study; cited from earlier work
[11] = system: rats; conditions: 26-week repeated dose; cited from earlier work
[12] = system: conscious beagle dogs; conditions: non-clinical study; cited from earlier work
[13] = system: SGLT1; conditions: read-out: 50% inhibitory concentration (IC50); SGLT1, human expressing cells, nonclinical study; cited from earlier work
[14] = system: Japanese patients with type 2 diabetes mellitus; conditions: cited from earlier work
[15] = TS-071 25 mg single oral dose, healthy adult males, ref Investigator's Brochure of TS-071 (Version 6)
[16] = luseogliflozin 20 mg (supratherapeutic dose)

## COc1c(N2C[C@@H]3CCCN[C@@H]3C2)c(F)cc2c(=O)c(C(=O)O)cn(C3CC3)c12 [Moxifloxacin, moxifloxacin, reference compound]
[1]; moxifloxacin 400 mg group
  Percentage of subjects with an adverse event: 72.2%
[1]; moxifloxacin 400 mg, n = 54
  AEs, n (number of events): 56 n
  Drug-related AEs, n (number of events): 36 n
[2]; moxifloxacin 400 mg
  Correlation between ΔΔQTcF and plasma concentration of unchanged compound: positive relationship; also recorded: positive correlation
  Hysteresis of mean ΔΔQTcF versus mean plasma concentration: counter-clockwise hysteresis effect; also recorded: counterclockwise hysteresis
[2]; 3 and 4 hour post-dose
  Least squares mean ΔΔQTcF: 13.4 ms
[2]; 24 h post-dose
  Least squares mean ΔΔQTcF: 7.7 ms
[2]; moxifloxacin 400 mg, n = 54
  Number (%) of Subjects, QTcF Increase >30 ms from baseline: 0 (0.0) n (%)
  Number (%) of Subjects, QTcF Increase >60 ms from baseline: 0 (0.0) n (%)
  Number (%) of Subjects, QTcF Value >450 ms: 7 (13.0) n (%)
  Number (%) of Subjects, QTcF Value >480 ms: 0 (0.0) n (%)
  Number (%) of Subjects, QTcF Value >500 ms: 0 (0.0) n (%)
[2]; moxifloxacin 400 mg, n = 54, listed as moxifloxacin
  Number (%) of Subjects, QTcF Value >450 ms: 7 n (%)
[2]; moxifloxacin 400 mg, text in Fig 6
  Regression of ΔΔQTcF (msec) on plasma concentration (μg/mL): ΔΔQTcF = 3.42+3.03xConc.
[3]; 400 mg
  AUC(0-inf): 60000 ± 11100 ng·h/mL
  Cmax: 3880 ± 939 ng/mL
  Tmax: 2.2 h
[4]; 400 mg
  Tmax: 2.19 ± 1.09 h

## CCOc1ccc(Cc2cc([C@@H]3S[C@H](CO)[C@@H](O)[C@H](O)[C@H]3O)c(OC)cc2C)cc1 [Luseogliflozin, (1S)-1,5-anhydro-1-[5-(4-ethoxybenzyl)-2-methoxy-4-methylphenyl]-1-thio-D-glucitol]
[5]; TS-071 15 mg single oral dose, healthy adult males, ref Investigator's Brochure of TS-071 (Version 6)
  Mean Tmax: 1.56 h
[5]; [15]
  Mean T1/2: 12.6 h
  Mean Tmax: 2.25 h
[5]; single dose 1–25 mg
  Time to maximum plasma concentration (Tmax): ≤ 2.25 h
[6]
  Dose levels with diarrhoea or soft stools: ≥ 10 mg/kg
  No observed adverse effect level: 2 mg/kg
[7]
  Effect on the cardiovascular system: No effect
[1]; 5 mg luseogliflozin group
  Adverse events moderate in severity, number of events: two
  Subjects with first-degree atrioventricular block: one
[1]; 48 h after administration of luseogliflozin 5 mg, one subject
  Prolonged PR interval in the subject with first-degree atrioventricular block: 452 ms
[1]; after administration of luseogliflozin
  Relation of cardiovascular adverse events to the study drug: not related to the study drug
[1]; luseogliflozin 5 mg group
  Percentage of subjects with an adverse event: 41.1%
[1]; luseogliflozin 5 mg, n = 56
  AEs, n (number of events): 48 n
  Drug-related AEs, n (number of events): 20 n
[1]; luseogliflozin 20 mg group
  Percentage of subjects with an adverse event: 35.8%
[1]; luseogliflozin 20 mg, n = 53
  AEs, n (number of events): 32 n
  Drug-related AEs, n (number of events): 16 n
[1]
  Tolerability: well tolerated
[1]; listed as luseogliflozin
  Tolerability: safe and well tolerated
[8]
  IC50: 0.00226 µM
[9]
  Ratio of hERG test concentration (9.6 μmol/L) to the maximum observed Cmax: approximately 370 times
[10]
  Suppression of hERG current: 7.7%
[2]; luseogliflozin 5 mg (anticipated therapeutic dose)
  Upper bound of the 90% two-sided CI of the least squares mean ΔΔQTcB: < 10 ms
[2]; luseogliflozin 5 mg (therapeutic dose)
  Upper bound of the 90% two-sided CI for the least squares mean ΔΔQTcF: less than 10 ms
[2]; luseogliflozin 5 mg and 20 mg
  Correlation between ΔΔQTcF and plasma concentration of unchanged compound: No meaningful correlation; also recorded: no relationship
  Hysteresis of mean ΔΔQTcF versus mean plasma concentration: no clear hysteresis effect
[2]; luseogliflozin 5 mg, n = 56
  Number (%) of Subjects, QTcF Increase >30 ms from baseline: 0 (0.0) n (%)
  Number (%) of Subjects, QTcF Increase >60 ms from baseline: 0 (0.0) n (%)
  Number (%) of Subjects, QTcF Value >450 ms: 1 (1.8) n (%)
  Number (%) of Subjects, QTcF Value >480 ms: 0 (0.0) n (%)
  Number (%) of Subjects, QTcF Value >500 ms: 0 (0.0) n (%)
[2]; [16]
  Upper bound of the 90% two-sided CI for the least squares mean ΔΔQTcF: less than 10 ms
  Upper bound of the 90% two-sided CI of the least squares mean ΔΔQTcB: < 10 ms
[2]; luseogliflozin 20 mg, n = 53
  Number (%) of Subjects, QTcF Increase >30 ms from baseline: 0 (0.0) n (%)
  Number (%) of Subjects, QTcF Increase >60 ms from baseline: 0 (0.0) n (%)
  Number (%) of Subjects, QTcF Value >450 ms: 0 (0.0) n (%)
  Number (%) of Subjects, QTcF Value >480 ms: 0 (0.0) n (%)
  Number (%) of Subjects, QTcF Value >500 ms: 0 (0.0) n (%)
[11]
  Dose levels with diarrhoea or soft stools: ≥ 100 mg/kg
  No observed adverse effect level: 4 mg/kg
[12]
  Effect on the cardiovascular system: No effect
[3]; 5 mg
  AUC(0-inf): 2110 ± 418 ng·h/mL
  Cmax: 209 ± 48.9 ng/mL
  half-life: 10 ± 1.18 h
  Tmax: 1.3 h
[3]; 20 mg
  AUC(0-inf): 8650 ± 1780 ng·h/mL
  Cmax: 787 ± 186 ng/mL
  Tmax: 1.5 ± 0.961 h
[4]; 5 mg
  Tmax: 1.34 ± 0.935 h
[4]; 20 mg
  T1/2: 9.90 ± 1.22 h
[13]
  IC50: 2.9 µM
[14]; 0.5, 1, 2.5 and 5 mg/day, Japanese patients with type 2 diabetes mellitus
  Urinary glucose excretion in comparison to placebo: significantly increased
[14]; Day 7, 7-day repeated administration of 5 mg, patients with type 2 diabetes
  Observed Cmax of unchanged TS-071: 299 ng/mL

## COc1cc(C)c(Cc2ccc(OCC(=O)O)cc2)cc1[C@@H]1S[C@H](CO)[C@@H](O)[C@H](O)[C@H]1O [M17]
[4]; 5 mg
  AUCinf: 120 ± 41.9 ng·h/mL
  Cmax: 6.02 ± 2.10 ng/mL
  T1/2: 10.9 ± 1.49 h
  Tmax: 4.89 ± 1.14 h
[4]; 20 mg
  AUCinf: 487 ± 196 ng·h/mL
  Cmax: 24.3 ± 9.98 ng/mL
  T1/2: 10.9 ± 1.71 h
  Tmax: 5.13 ± 1.14 h

## COc1cc(C)c(Cc2ccc(O)cc2)cc1[C@@H]1S[C@H](CO)[C@@H](O)[C@H](O)[C@H]1O [M2]
[4]; 5 mg
  AUCinf: 257 ± 48.3 ng·h/mL
  Cmax: 8.85 ± 1.95 ng/mL
  T1/2: 13.8 ± 2.61 h
  Tmax: 5.71 ± 2.14 h
[4]; 20 mg
  AUCinf: 1030 ± 212 ng·h/mL
  Cmax: 35.1 ± 7.36 ng/mL
  T1/2: 13.9 ± 2.53 h
  Tmax: 5.83 ± 1.90 h
